What is called IC50 is the concentration that gives 50% inhibition. A low value points to greater potency in that assay. In general, MBC refers to the smallest concentration meeting the test's criterion for killing.

One data set concerns the target T1, DPAGT1 Arg301His (Homo sapiens, UniProt Q9H3H5, R301H).
T1 construct: combined with the LIC-adapted primers to amplify the complete DPAGT1 gene, including the desired mutations; 6xHis purification tag with TEV site (N, cleaved yes); made in house; host or cells: Spodoptera frugiperda Sf9 insect cells (baculovirus)
T1 sequence (Q9H3H5 1-408 R301H): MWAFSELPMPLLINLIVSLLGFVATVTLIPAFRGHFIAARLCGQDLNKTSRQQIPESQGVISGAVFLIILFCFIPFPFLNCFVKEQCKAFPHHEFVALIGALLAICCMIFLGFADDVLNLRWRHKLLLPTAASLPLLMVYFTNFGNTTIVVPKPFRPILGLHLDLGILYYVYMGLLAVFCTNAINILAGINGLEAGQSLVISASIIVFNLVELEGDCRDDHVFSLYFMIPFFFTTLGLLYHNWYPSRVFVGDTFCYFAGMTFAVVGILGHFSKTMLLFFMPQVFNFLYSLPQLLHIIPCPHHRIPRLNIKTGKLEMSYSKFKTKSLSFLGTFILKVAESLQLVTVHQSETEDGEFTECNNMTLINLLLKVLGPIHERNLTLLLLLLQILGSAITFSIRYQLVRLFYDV
The data set can be described thus: Thermostability assay (label free differential scanning fluorimetry). The data set is classed as binding, H. sapiens. Conditions: 50 μM compound. Here is the method:
(§1) Samples with a volume of 40 μl were prepared containing 0.5 mg/ml protein and 50 μM compound or 5% DMSO in GFB. A glass capillary was dipped into each sample, with the capillary held horizontally to ensure that the capillary was full of the sample. The capillaries were placed on the capillary holder on the Nanotemper Prometheus. Technical triplicates of each sample were prepared, and each experiment was conducted with biological triplicates of each protein. PR.ThermControl software was used to run the experiment and analyse the data. A melting curve from 20 °C – 95 °C at 5 °C/min was performed. The minimum of the first derivative of the 330/350nm ratio was used to determine the Tm1/2.
On the technique in general: Differential scanning fluorimetry follows unfolding on heating by fluorescence.

The next data set addresses T2, DPAGT1 Val264Gly (Homo sapiens, UniProt Q9H3H5, V264G).
T2 construct: H. sapiens DPAGT1 (1-408, Val264Gly, N-terminal 6 x HIS tag, TEV cleavage site); 6xHis purification tag with TEV site (N, cleaved yes); made in house; host or cells: Spodoptera frugiperda Sf9 insect cells (baculovirus)
T2 sequence (Q9H3H5 1-408 V264G): T1 sequence (Q9H3H5 1-408 R301H) with V264G, H301R
The data set is described as above. The class given is binding, H. sapiens. Conditions: 50 μM compound. Here is the method:
as §1

The test system of the next data set is B. subtilis EC1524. Nature of the data set: Micro-broth dilution and drop plate antimicrobial susceptibility test. The conditions noted are these: for Relative Therapeutic Index (RTI), B. subtilis EC1524: minimal lethal dose / MIC, 800 μg mL-1 used for >400. The data set is classed as cell-based, Bacillus subtilis. A general note: Dilution methods test growth across graded concentrations, often in twofold steps.

For another data set, the system named is B. cereus ATCC11778. The description is as above. The class given is cell-based, Bacillus cereus. Conditions: for Relative Therapeutic Index (RTI), B. cereus NRRL 11778: minimal lethal dose / MIC, 800 μg mL-1 used for >400.
In the next data set the test system is Mtb H37Rv ATCC27294. The data set can be described thus: Minimum inhibitory concentrations testing against Mtb. The data set is classed as cell-based, Mycobacterium tuberculosis. Conditions: for MIC: Mycobacterium tuberculosis, 168 h.
The subject of the next data set is HEK293 cells. The data set can be described thus: Cell proliferation assay (MTS). The data set is classed as cell-based, human. Conditions: for LD50 values, HEK293: MTS cell proliferation assay, 24 hrs, highest concentration 400 µg mL-1; for Minimal Lethal Dose, HEK 293: serial 2-fold dilutions (Table S6). For orientation: Tetrazolium assays rely on reduction of a dye to a coloured formazan, in cell work by metabolically active cells.

For the next data set, the system named is HepG2 cells. Nature of the data set: Cell proliferation assay (MTS). The conditions noted are these: for LD50 values, HepG2: MTS cell proliferation assay, 24 hrs, highest concentration 400 µg mL-1; for Minimal Lethal Dose, HepG2: serial 2-fold dilutions (Table S6). The class given is cell-based, human.
The next data set relates to Raji cells. Nature of the data set: Cell proliferation assay (MTS). The data set is classed as cell-based, human. The conditions noted are these: 24 hrs.
[1] abbreviates: Bacillus subtilis, EC1524, read-out: Minimal Inhibitory Concentration, B. subtilis EC1524.
Where [2] appears, read: Bacillus cereus, ATCC 11778 / NRRL11778, read-out: Minimal Inhibitory Concentration, B. cereus NRRL 11778.

Molecules are shown by their SMILES. Where a chain is given by its changes, count along the chain named. In brackets after ≈: the same amount, converted by molar mass. Structures can show the parent of a compound that is named as a salt. Where two headings read alike, the source gives them in different places.

Consider `N[C@H]1[C@H](O[C@H]2O[C@H](CO)[C@@H](O)[C@H](O)[C@H]2N)O[C@H](C[C@@H](O)[C@H]2O[C@@H](n3ccc(=O)[nH]c3=O)[C@H](O)[C@@H]2O)[C@H](O)[C@@H]1O` [TUN, α-D-glucosamine-(1”-11')-tunicamyl uracil dihydrochloride], for which the “Thermostability (Tm1/2) with added compound” value was 81.2±0.5 °C at DPAGT1 Arg301His and 82.6±0.1 °C at DPAGT1 Val264Gly. In addition, the MIC with B. subtilis EC1524 (setting [1]) is 100 µg/mL; in the data set with B. cereus ATCC11778 (setting [2]), 100 µg/mL; with Mtb H37Rv ATCC27294 (1-week in 7H9/ADC/Tw (Table S6), read-out: Minimal Inhibitory Concentration, Mtb H37RV a), greater than 60 µg/mL; in the data set with Mtb H37Rv ATCC27294 (1-week in GAST/Fe (Table S6), read-out: Minimal Inhibitory Concentration, Mtb H37RV b), greater than 60 µg/mL; in the data set on Mtb H37Rv ATCC27294 (Mtb H37Rv, minimal growth medium, read-out: 1-week MIC in GAST/Fe), greater than 60 µg/mL; with Mtb H37Rv ATCC27294 (Mtb H37Rv, rich 7H9-based growth medium, read-out: 1-week MIC in 7H9/ADC/Tw), greater than 60 µg/mL. Besides, the “Relative Therapeutic Index (RTI), B. subtilis EC1524” value in the data set on B. subtilis EC1524 was found to be 8. Also, the “Relative Therapeutic Index (RTI), B. cereus NRRL 11778” value in the data set on B. cereus ATCC11778 was determined as 8. Also, in the data set on HEK293 cells, the “LD50 values, HEK293” value was “N/A (N/A = not available. No or low cytotoxicity observed at highest, saturating concentration tested (400 µg mL-1))”. The “Minimal Lethal Dose, HEK 293” value with HEK293 cells was greater than 400 µg/mL. For the same molecule, the “LD50 values, HepG2” value in the data set on HepG2 cells is recorded as “N/A (N/A = not available. No or low cytotoxicity observed at highest, saturating concentration tested (400 µg mL-1))”. Also, the “Minimal Lethal Dose, HepG2” value in the data set on HepG2 cells was greater than 400 µg/mL. Besides, in the data set with Raji cells, the “LD50 values, Raji” value is 698.3 µg/mL.

Regarding `CCCCCCCC(=O)N[C@H]1[C@H](O[C@H]2O[C@H](CO)[C@@H](O)[C@H](O)[C@H]2NC(=O)CCCCCCC)O[C@H](C[C@@H](O)[C@H]2O[C@@H](n3ccc(=O)[nH]c3=O)[C@H](O)[C@@H]2O)[C@H](O)[C@@H]1O` [TUN-8,8, Di-N-octanoyl-tunicamycin], the half-inhibitory concentration (IC50) worked out at 0.2 µg/mL (≈ 0.244 µM) in the data set on B. subtilis EC1524 (Bacillus subtilis, EC1524) and 0.78 µg/mL (≈ 0.952 µM) in the data set with B. cereus ATCC11778 (Bacillus cereus, ATCC11778). Also, the minimum bactericidal concentration (MBC) with B. subtilis EC1524 (Bacillus subtilis, EC1524) was greater than 0.78 µg/mL; against B. cereus ATCC11778 (Bacillus cereus, ATCC11778) it was greater than 50 µg/mL. Moreover, the MIC was found to be 0.65 ± 0.22 µg/mL (≈ 0.794 µM) against B. subtilis EC1524 (Bacillus subtilis, EC1524); 0.78 µg/mL (≈ 0.952 µM) in the data set on B. subtilis EC1524 (setting [1]); 5.2 ± 1.8 µg/mL (≈ 6.35 µM) in the data set on B. cereus ATCC11778 (Bacillus cereus, ATCC11778); 6.25 µg/mL (≈ 7.63 µM) with B. cereus ATCC11778 (setting [2]); 0.7 ± 3.3 µg/mL (≈ 0.855 µM) in the data set with Mtb H37Rv ATCC27294 (read-out: 1-week MIC in 7H9/ADC/Tw); 0.14 ± 0.1 µg/mL (≈ 0.171 µM) in the data set on Mtb H37Rv ATCC27294 (read-out: 1-week MIC in GAST/Fe). The MIC was 0.7 µg/mL (≈ 0.855 µM) in the data set with Mtb H37Rv ATCC27294 (read-out: Minimal Inhibitory Concentration, Mtb H37RV a) and 0.14 µg/mL (≈ 0.171 µM) with Mtb H37Rv ATCC27294 (read-out: Minimal Inhibitory Concentration, Mtb H37RV b). The “Relative Therapeutic Index (RTI), B. subtilis EC1524” value in the data set on B. subtilis EC1524 was 1026. Moreover, the “Relative Therapeutic Index (RTI), B. cereus NRRL 11778” value with B. cereus ATCC11778 is 128. In addition, the “Relative Therapeutic Index (RTI), Mtb H37RV a” value in the data set with Mtb H37Rv ATCC27294 was 1140. Moreover, the “LD50 values, HEK293” value in the data set on HEK293 cells was “N/A (N/A = not available. No or low cytotoxicity observed at highest, saturating concentration tested (400 µg mL-1))”. In addition, in the data set on HEK293 cells, the “Minimal Lethal Dose, HEK 293” value was greater than 400 µg/mL. For the same molecule, the “LD50 values, HepG2” value in the data set on HepG2 cells is reported as “N/A (N/A = not available. No or low cytotoxicity observed at highest, saturating concentration tested (400 µg mL-1))”. For the same molecule, the “Minimal Lethal Dose, HepG2” value in the data set with HepG2 cells is greater than 400 µg/mL. In addition, in the data set with Raji cells, the “LD50 values, Raji” value came out at 211.05 ± 125.94 µg/mL.

For the origin of these results see publication PMC6218659, “Structures of DPAGT1 Explain Glycosylation Disease Mechanisms and Advance TB Antibiotic Design” (Cell, 2018).
